Experimental data reported in patent US8354387B2, “Methods and compositions for delivering siRNA into mammalian cells” (Centre National de la Recherche Scientifique, priority 2004, dated 2013).

How the values were obtained:
importin α = test: In vitro binding of carrier/DNA complexes to immobilized GST-importin α; conditions: 1 hr at 25° C., agarose gel
Description: FIG. 2: The NLS of MPG is essential for nuclear translocation: A/ Purified GST-importin α and β were coupled onto GST Sepharose resin and incubated in batch with MPG/DNA or MPG^ΔNLS/DNA complexes for 1 hr, extensively washed and incubated with […] glutathione to elute the complexes. DNA was then extracted and analyzed by agarose gel electrophoresis (0.8%). […] B/ Delivery of pRL-SV40 plasmid: MPG/DNA (black boxes) or MPG^ΔNLS/DNA (grey boxes) complexes formed at a charge ratio of 5/1 with 100 ng pRL-SV40 plasmid encoding the reporter gene luciferase were overlaid onto synchronized or arrested (-FCS) human fibroblasts (Hs68). Luciferase activity was monitored 12 hrs and 24 hrs after release from synchrony, or after 24 hrs for arrested cells and 48 hrs for asynchronous cells. […]
Plasmids for the expression of recombinant GST-fusion protein importin α and importin β were kindly provided by B. Cullen. […] DNA was then extracted from the complexes with phenol-chloroform, followed by ethanol precipitation, and finally analyzed by agarose gel electrophoresis (0.8%).
MPG peptide is derived from the nuclear localization sequence of the SV 40 large T antigen and from the fusion peptide domain of HIV-1 gp41 protein (17). […] Then, both bound and unbound fractions were analyzed by agarose gel electrophoresis.

Hs68 human fibroblasts = test: Cellular uptake and localization of fluorescently labelled siRNA by fluorescence microscopy on living cells; format: cell-based; conditions: for final subcellular localization of fluorescently-labeled siRNA: GAPDH siRNA, molar ratio 10/1, Hs68, living cells; for efficiency of siRNA delivery into cultured cells (% cells): fluorescently-labelled GAPDH siRNA, carrier/siRNA molar ratio 10/1, Hs68, 30 min, with serum
Description: Hs68 (ATCC no CRL-1635), Cos-7 (ATCC no CRL-1651) and HeLa (ATCC no CCL-2) cell lines were cultured in Dulbecco's Modified Eagle's Medium supplemented with 2 mM glutamine, 1% antibiotics (streptomycin 10 000 μg/ml, penicillin, 10,000 IU/ml) and 10% (w/v) fetal calf serum (FCS) at 37° C. in a humidified atmosphere containing 5% CO2 as described previously (18). For MPG or MPG^ΔNLS-mediated gene delivery, peptide carrier/siRNA complexes were formed in DMEM or PBS, at a charge ratio 10:1 and incubated for 30 min at 37° C. Cells grown to 60% confluence were then overlaid with these preformed complexes. After 30 min incubation at 37° C., 1 ml of fresh DMEM supplemented with 10% fetal calf serum was added to the cells, without removing the overlay of carrier/siRNA, and cells were returned to the incubator.
Transfections were performed for 1 hour, after which cells were extensively washed and either analyzed by fluorescence microscopy in order to determine the cellular localization of the fluorescently labeled oligonucleotide or returned to the incubator at 37° C. in the presence of fresh medium supplemented with serum.
siRNA targeting the 3′UTR of GAPDH were from the Silencer™ GAPDH siRNA kit (Ambion). Fluorescent labeling of siRNA was performed using either the Fam or the Cy3 Silencer™ labeling kit (Ambion) and modified as described in the manufacturer's protocol. pRL-Luc reporter gene was from Promega and siRNA targeting luciferase sense ^5′[…]^3′ (SEQ ID NO:4) and antisense ^3′ […]^5′ (SEQ ID NO:5) and mismatch sense ^5′[…]^3′ (SEQ ID NO:6) and antisense ^3′[…]^5″ (SEQ ID NO:7) siRNA were obtained from Genset Oligos.
RNA interference (siRNA) constitutes a powerful tool to silence gene expression post-transcriptionally (28, 29). In order to validate the potential of MPG-like carriers, the ability of MPG and MPG^ΔNLS to promote cellular uptake of siRNA was investigated. Fluorescently-labelled siRNA designed to silence GAPDH were complexed with both MPG and MPG^ΔNLS at a molar ratio of 10/1, incubated onto cultured Hs68 human fibroblasts in the presence of serum for 30 min, following which internalization and subcellular localization of siRNA were examined by fluorescence microscopy. Two different fluorescent probes (fluorescein and Cy-3), were used in order to avoid any artefacts which might have been associated with the nature of the probe. As fixation procedures have sometimes been reported to cause artifactual uptake (30-32), experiments were performed on living cells.

In the case of “GALFLGFLGAAGSTMGAWSQPKKKRKV (carrier peptide) [MPG, bipartite amphipathic peptide derived from fusion peptide domain of HIV-1 gp41 and NLS of SV40 large T antigen]”, the “interaction of carrier/DNA complex with importin α” value (importin α) is reported as “significantly interacted specifically with importin α”, the “final subcellular localization of fluorescently-labeled siRNA” value (Hs68 human fibroblasts) is reported as “localized rapidly to the nucleus” and the “efficiency of siRNA delivery into cultured cells (% cells)” value (Hs68 human fibroblasts) is reported as “about 90 % cells”.

“GALFLGFLGAAGSTMGAWSQPKSKRKV (carrier peptide) [MPG^ΔNLS, MPG variant with single mutation of the second lysine residue in the NLS motif to serine]” was tested, and the “interaction of carrier/DNA complex with importin α” value (importin α) was “dramatically reduced”, the “final subcellular localization of fluorescently-labeled siRNA” value (Hs68 human fibroblasts) was “remained mostly in the cytoplasm” and the “efficiency of siRNA delivery into cultured cells (% cells)” value (Hs68 human fibroblasts) was “about 90 % cells”.
